Measured values as given in paper PMC3242765, “Inhibitors of Alphavirus Entry and Replication Identified with a Stable Chikungunya Replicon Cell Line and Virus-Based Assays” (PLoS ONE, 2011).

test system: SFV-Rluc; details: not given

Row | SMILES | SFV replication % left (surviving fraction, remaining percentage of SFV replication)
1 | O=C1NS(=O)(=O)c2ccccc21.[Na] [PC-183] | 105.0%
2 | CCN(CC)CCNC(=O)c1ccc(N)cc1.Cl [PC-166] | 89.0%
3 | CCOc1ccc(NC(C)=O)cc1 [PC-150] | 71.8%
4 | N=C(N)NS(=O)(=O)c1ccc(N)cc1 [PC-196] | 63.5%
5 | CC(C)NCC(O)COc1ccc(CC(N)=O)cc1 (stereo not drawn) [Atenolol] | 44.2%
6 | CC(C)NCC(O)c1ccc(NS(C)(=O)=O)cc1.Cl (stereo not drawn) [PC-191] | 100.5%
7 | CC(C)(C)NC[C@H](O)COc1nsnc1N1CCOCC1.O=C(O)/C=C\C(=O)O [PC-225] | 129.1%
8 | Cc1ncc(CO)c(CO)c1O.Cl [PC-178] | 100.9%

same assay, conditions: Supplementary Table 2, moderately active compounds (25 - 60% remaining), primary screen at 50 µM

Row | SMILES | % left (remaining SFV replication)
9 | NC(=O)N1c2ccccc2C=Cc2ccccc21 [PC-037] | 57.3%
10 | Cc1cc2nc3c(=O)[nH]c(=O)nc-3n(C[C@H](O)[C@H](O)[C@H](O)CO)c2cc1C [PC-182] | 43.1%
11 | O=c1c(-c2ccc(O)cc2)coc2cc(O)cc(O)c12 [NC-042] | 45.6%
12 | C=CCC(=NOS(=O)(=O)[O-])SC1OC(CO)C(O)C(O)C1O.O.[K+] (stereo not drawn) [NC-096] | 47.6%
13 | COc1cc(C(=O)O)cc(OC)c1OC [NC-102] | 34.1%
14 | CNC1=Nc2ccc(Cl)cc2C(c2ccccc2)=[N+]([O-])C1 [PC-041] | 54.3%
15 | Cl.Cl.OCCN1CCN(CCC=C2c3ccccc3Sc3ccc(Cl)cc32)CC1 [PC-050] | 55.2%

same assay, conditions: primary screening of chemical libraries; compounds tested at 50 µM

Row | SMILES | SFV replication % left
16 | Br.COC(=O)C1=CCCN(C)C1 [PC-016] | 83.6%
17 | CNC(C)C(O)c1ccc(O)cc1 (stereo not drawn) [PC-094] | 94.4%
18 | C#C[C@]1(O)CC[C@H]2[C@@H]3CCc4cc(O)ccc4[C@H]3CC[C@@]21C [PC-077] | 11.7%
19 | O=C1CN=C(c2ccccc2F)c2cc(Cl)ccc2N1 [PC-057] | 68.5%
20 | O=C(O)Cc1cccc(O)c1 [NC-051] | 110.8%
21 | COc1ccc2ccc(=O)oc2c1 [NC-124] | 53.2%
22 | O=C(O)c1cc2cc(Br)cc(Br)c2oc1=O [NC-125] | 67.4%
23 | CCCCCCCCCCCCCCCC[N+](C)(C)C.[Br-] [PC-039] | 75.0%
24 | CN(C)CC[C@@H](c1ccc(Br)cc1)c1ccccn1.O=C(O)/C=C\C(=O)O [PC-058] | 69.6%
25 | COc1cc2ccc(=O)oc2cc1O [NC-114] | 81.9%
26 | Oc1ccc(C(O)CNCCCCCCNCC(O)c2ccc(O)c(O)c2)cc1O (stereo not drawn) [PC-088] | 124.9%
27 | CCOC(=O)c1ccc(O)cc1 [PC-075] | 127.8%
28 | COc1cc2oc(=O)ccc2cc1O [NC-109] | 120.6%
29 | C[C@@H]1O[C@@H](O[C@H]2C[C@@H](O)[C@]3(CO)[C@H]4[C@H](O)C[C@]5(C)[C@@H](C6=CC(=O)OC6)CC[C@]5(O)[C@@H]4CC[C@]3(O)C2)[C@H](O)[C@H](O)[C@H]1O [PC-140] | 90.9%
30 | CC(C)(O)C(Cl)(Cl)Cl [PC-042] | 84.2%
31 | CC(C)OC(=O)c1cc(O)c(O)c(O)c1 [NC-054] | 124.0%
32 | O=c1cc(-c2ccc(O)cc2)oc2cc(O)cc(O)c12 [NC-003] | 18.0%
33 | Oc1cc(O)c2c(c1)OC(c1ccc(O)c(O)c1)C(O)C2O (stereo not drawn) [NC-060] | 136.3%
34 | O=c1cc(O)c2ccccc2o1 [NC-117] | 100.2%
35 | CC(=O)CC(c1ccccc1)c1c(O)c2ccccc2oc1=O (stereo not drawn) [NC-118] | 79.5%
36 | CC[C@@]1(O)C(=O)OCc2c1cc1n(c2=O)Cc2cc3ccccc3nc2-1 [NC-099] | 87.7%

Row | SMILES | SFV replication % left
37 | O=c1ccc2cc(O)c(O)cc2o1 [NC-126] | 103.6%
38 | Nc1ccc(Cl)cc1C(=O)c1ccccc1F [PC-083] | 167.4%
39 | O=c1cc(-c2ccc(O)c(O)c2)oc2cc(O)cc(O)c12 [NC-061] | 71.3%
40 | O=C(O)[C@]1(O)C[C@@H](O)[C@@H](O)[C@H](O)C1 [NC-084] | 98.2%
41 | COc1cc(/C=C/C(=O)O)ccc1O [NC-039] | 63.4%
42 | Cc1c(N)c(=O)n(-c2ccccc2)n1C [PC-011] | 51.6%
43 | N/C(CC(O)COc1cccc2ccccc12)=N/O (stereo not drawn) [PC-124] | 20.8%
44 | COc1ccccc1OCC(O)CO (stereo not drawn) [PC-086] | 124.5%
45 | O=C(O)/C=C/c1ccccc1O [NC-014] | 77.6%
46 | NC(=O)N1c2ccccc2C=Cc2ccccc21 [PC-037] | 57.2%
47 | CC(C)(C)NCC(O)COc1ccccc1C#N (stereo not drawn) [PC-026] | 40.7%
48 | CNCCC=C1c2ccccc2CCc2ccccc21.Cl [PC-136] | 5.3%
49 | CN(Cc1cc(Br)cc(Br)c1N)C1CCCCC1.Cl [PC-024] | 64.8%
50 | CC(=O)Nc1ccc(O)cc1 [PC001-] | 63.5%
51 | O=c1cc(-c2ccccc2)oc2ccccc12 [NC-040] | 52.2%
52 | O=C(CO)c1ccccc1 [NC-047] | 129.7%
53 | CC12CCC(CC1=O)C2(C)C (stereo not drawn) [PC-036] | 83.9%
54 | CCOC(=O)c1ccc(N)cc1 [PC-023] | 43.4%
55 | C[C@H]1O[C@@H](O[C@H]2[C@@H](O)C[C@H](O[C@H]3[C@@H](O)C[C@H](O[C@H]4CC[C@@]5(C)[C@H](CC[C@@H]6[C@@H]5C[C@@H](O)[C@]5(C)[C@@H](C7=CC(=O)OC7)CC[C@]65O)C4)O[C@@H]3C)O[C@@H]2C)C[C@H](O)[C@@H]1O [PC-065] | 141.9%
56 | NCCCS(=O)(=O)O [PC-090] | 118.7%
57 | O=c1c(-c2ccc(O)cc2)coc2cc(O)cc(O)c12 [NC-042] | 45.6%

Row | SMILES | SFV replication % left
58 | Oc1ccccc1O [NC-012] | 58.4%
59 | COc1cc(C2Oc3cc([C@H]4Oc5cc(O)cc(O)c5C(=O)[C@@H]4O)ccc3OC2CO)ccc1O (stereo partly drawn) [NC-093] | 22.4%
60 | COc1ccc2c(C)cc(=O)oc2c1 [NC-120] | 72.2%
61 | C=CCC(=NOS(=O)(=O)[O-])SC1OC(CO)C(O)C(O)C1O.O.[K+] (stereo not drawn) [NC-096] | 47.6%
62 | O=c1cc(C(F)(F)F)c2cc3c4c(c2o1)CCCN4CCC3 [NC-131] | 52.6%
63 | O=C1C[C@@H](c2ccc(O)cc2)Oc2cc(O)cc(O)c21 [NC-069] | -0.0736%
64 | CC(CN1c2ccccc2Sc2ccccc21)[N+](C)(C)CCO.[Cl-] (stereo not drawn) [PC-096] | 102.2%
65 | CCN(CC)C(C)CN1c2ccccc2Sc2ccccc21.Cl (stereo not drawn) [PC-074] | 20.1%
66 | Cc1ccccc1OCC(O)CO (stereo not drawn) [PC-110] | 79.2%
67 | O=C1NC2NC(=O)NC2N1 (stereo not drawn) [PC-004] | 55.2%
68 | COc1cc(/C=C/C(=O)O)cc(OC)c1O [NC-095] | 22.0%
69 | CC(N)C(O)c1ccc(O)c(O)c1.Cl (stereo not drawn) [PC-133] | 118.0%
70 | C[C@@]12CCC[C@H]1[C@@H]1CC[C@H]3CCCC[C@]3(C)[C@H]1CC2 [PC-013] | 53.0%
71 | CCCCNC(=O)c1ccc(Cl)cc1O [PC-025] | 49.6%
72 | Oc1ccc(O)cc1 [NC-053] | 16.9%
73 | CN1CCC(CN2c3ccccc3Sc3ccccc32)C1 (stereo not drawn) [PC-115] | 22.5%
74 | O=C(N[C@H](CO)[C@H](O)c1ccc([N+](=O)[O-])cc1)C(Cl)Cl [PC-040] | 73.8%
75 | CN1C(=O)NC(=O)C(C)(C2=CCCCC2)C1=O (stereo not drawn) [PC-087] | 121.3%
76 | COc1cc(C(=O)O)cc(OC)c1OC [NC-102] | 34.0%
77 | O=c1oc2c3c4c(cc2c2c1CCC2)CCCN4CCC3 [NC-130] | 82.1%
78 | Oc1cc(O)c2c(c1)O[C@H](c1cc(O)c(O)c(O)c1)[C@H](O)C2 [NC-036] | 101.9%

Row | SMILES | SFV replication % left
79 | O=C1NC(=O)C(c2ccccc2)(c2ccccc2)N1 [PC-068] | 66.3%
80 | CCC(N)C(O)c1ccc(O)c(O)c1 (stereo not drawn) [PC-076] | 126.8%
81 | NC(=O)c1cccnc1 [PC-129] | 116.9%
82 | O=c1oc2cc(O)ccc2cc1-c1nc2ccccc2o1 [NC-007] | 21.0%
83 | CNC1=Nc2ccc(Cl)cc2C(c2ccccc2)=[N+]([O-])C1 [PC-041] | 54.3%
84 | Cl.Cl.OCCN1CCN(CCC=C2c3ccccc3Sc3ccc(Cl)cc32)CC1 [PC-050] | 55.2%
85 | C[C@]12CC[C@H](O)C[C@H]1CC[C@@H]1[C@@H]2CC[C@]2(C)[C@@H](C3=CC(=O)OC3)[C@@H](O)C[C@]12O [NC-043] | 102.7%
86 | O=C(O)c1cc(O)ccc1O [NC-024] | 127.8%
87 | COc1cc(C(=O)O)ccc1O [NC-105] | 53.4%
88 | COc1cc2ccc(=O)oc2c(O)c1OC [NC-111] | 77.8%
89 | O=C(O)/C=C\C(=O)O.O=C(O)/C=C\C(=O)O.OCCN1CCN(CCCN2c3ccccc3Sc3ccc(C(F)(F)F)cc32)CC1 [PC-084] | 98.9%
90 | CN(C)CC[C@@H](c1ccc(Cl)cc1)c1ccccn1.O=C(O)/C=C\C(=O)O [PC-059] | 68.1%
91 | CC(C)(C)NCC(O)COc1cccc2c1CC(O)C(O)C2 (stereo not drawn) [PC-123] | 60.5%
92 | CC(C)NCC(O)c1ccc(Cl)c(Cl)c1.Cl (stereo not drawn) [PC-062] | 49.6%
93 | O=c1c(O)c(-c2ccc(O)c(O)c2)oc2c(O[C@@H]3O[C@H](CO)[C@@H](O)[C@H](O)[C@H]3O)c(O)cc(O)c12 [NC-044] | 105.8%
94 | Cc1cc(=O)oc2cc(O)ccc12 [NC-108] | 90.9%
95 | O.O.O.O=c1ccc2cc(O[C@@H]3O[C@H](CO)[C@@H](O)[C@H](O)[C@H]3O)c(O)cc2o1.O=c1ccc2cc(O[C@@H]3O[C@H](CO)[C@@H](O)[C@H](O)[C@H]3O)c(O)cc2o1 [NC-127] | 95.0%
96 | CC(=O)c1ccc(O)cc1 [NC-049] | 29.4%
97 | CCn1cc(C(=O)O)c(=O)c2ccc(C)nc21 [PC-125] | 80.4%
98 | O=S(=O)(O)NC1CCCCC1 [PC-053] | 74.9%
99 | CCN(CC)c1ccc2cc(-c3nc4ccccc4n3C)c(=O)oc2c1 [NC-016] | 12.3%
